According to patent US9255090B2, “Heterocyclyl derivatives and their use as prostaglandin D2 receptor modulators” (Actelion Pharmaceuticals Ltd., priority 2012, dated 2016):

Biological target: hCRTH2 receptor (Homo sapiens (Human), UniProt Q9Y5Y4)
Test: hCRTH2 receptor membranes radioligand (3H-PGD2) displacement assay
Assay type: binding
Conditions: 3H-PGD2 radioligand displacement, HEK293-hCRTH2 membranes
Procedure: Biological Assays: Preparation of hCRTH2 Receptor Membranes and Radioligand Displacement Assay:
First, recombinant HEK293-hCRTH2 cells were detached from culture plates into 5 ml buffer A/plate (Buffer A: 5 mM Tris, 1 mM MgCl2-6H2O pH=7.4) using a rubber policeman. Cells were then transferred into centrifugation tubes and centrifuged for 5 min at 400 g. The cell pellet was resuspended in the same buffer and tubes were frozen at −80° C. Cells were thawed and membrane fragments were generated by homogenization using a polytron homogenizer (30 seconds). The membrane fragments were then centrifuged at 3000 g for 20 minutes and resuspended in buffer C (Buffer C: 75 mM Tris, 25 mM MgCl2, 250 mM Saccharose pH 7.4). Aliquots of membrane fragments were stored at −20° C.
Binding assay was performed in a final assay volume of 250 μl. First, 25 μl of test compound, previously diluted in Binding-Buffer (Binding-Buffer: 50 mM Tris-Base, 100 mM NaCl, 1 mM EDTA, 0.1% BSA (protease free), 0.01% NaN3, 10 mM MnCl2, pH 7.0) was placed into each well. After addition of 75 μl Binding-Buffer, 50 μl of the radioligand ^3H-PGD2 (at 2.5 nM (220.000 dpm/well) from ANAWA ART0662) was added to each well. Binding assay was started by addition of 100 μl CRTH2 membrane fragments, reaching a final concentration of 20 μg/well. For non-specific binding, PGD2 was added to the reaction mixture to […] final concentration. This assay mix was incubated for 90 minutes at room temperature and then filtered through a GF/C filter 96-well plate which was pre-soaked for 3 hours in 0.5% polyethyleneimine (PEI). The filter-wells were washed three times with ice cold Binding-Buffer. Then, 40 μl of Microscint-40 (Packard) was added to each well and the retained radioactivity quantified in a Topcount (Packard).

hCRTH2 receptor, sequence (Q9Y5Y4 whole entry): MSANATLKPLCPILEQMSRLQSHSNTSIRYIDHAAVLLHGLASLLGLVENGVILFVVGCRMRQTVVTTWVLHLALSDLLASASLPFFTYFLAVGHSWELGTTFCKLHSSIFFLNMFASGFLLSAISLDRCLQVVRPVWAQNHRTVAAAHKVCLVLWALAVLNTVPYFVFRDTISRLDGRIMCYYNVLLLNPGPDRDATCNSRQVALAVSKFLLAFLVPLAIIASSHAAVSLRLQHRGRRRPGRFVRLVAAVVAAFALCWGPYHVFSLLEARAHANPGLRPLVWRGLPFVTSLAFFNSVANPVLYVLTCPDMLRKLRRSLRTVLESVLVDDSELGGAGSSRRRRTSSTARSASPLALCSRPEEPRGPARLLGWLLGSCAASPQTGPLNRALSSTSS

Row | IC50 | SMILES
1 | 3.4 nM | CCOc1ccc(CC(=O)O)cc1-c1ccc(F)c2c1CN(C(=O)CC(C)c1ccccc1F)CC2 (racemic) [Example 280]
2 | 27.5 nM | CCOc1ccc(CC(=O)O)cc1-c1ccc(F)c2c1CN(C(=O)CC(C)c1cnccn1)CC2 (racemic) [Example 281]
3 | 2.2 nM | CCOc1ccc(CC(=O)O)cc1-c1ccc(F)c2c1CN(C(=O)CC(C)c1ccccc1OC)CC2 (racemic) [Example 282]
4 | 7.2 nM | CCOc1ccc(CC(=O)O)cc1-c1ccc(F)c2c1CN(C(=O)CC(C)c1nccs1)CC2 (racemic) [Example 283]
5 | 2.4 nM | CCOc1ccc(CC(=O)O)cc1-c1ccc(F)c2c1CN(C(=O)CC1CC(C)(C)Oc3ncccc31)CC2 (racemic) [Example 284]
6 | 3.5 nM | O=C(O)Cc1ccc(-c2ccc(F)c3c2CN(C(=O)CC2CCOc4ccccc42)CC3)c(OCC(F)(F)F)c1 (racemic) [Example 285]
7 | 10 nM | CC(CC(=O)N1CCc2c(F)ccc(-c3ccc(CC(=O)O)cc3OCC(F)(F)F)c2C1)c1ccccn1 (racemic) [Example 288]
8 | 5 nM | CC(C)Oc1ccc(CC(=O)O)cc1-c1ccc(F)c2c1CN(C(=O)CC1CCOc3ccccc31)CC2 (racemic) [Example 290]
9 | 1.6 nM | CC(C)Oc1ccc(CC(=O)O)cc1-c1ccc(F)c2c1CN(C(=O)CC(C)c1ccccn1)CC2 (racemic) [Example 293]
10 | 3.2 nM | Cc1cccc(C(C)CC(=O)N2CCc3c(F)ccc(-c4cc(CC(=O)O)ccc4OC(C)C)c3C2)n1 (racemic) [Example 294]
11 | 1.9 nM | CC(C)Oc1ccc(CC(=O)O)cc1-c1ccc(F)c2c1CN(C(=O)CC1OCCc3ccccc31)CC2 (racemic) [Example 297]
12 | 1.2 nM | CC(C)Oc1ccc(CC(=O)O)cc1-c1ccc(F)c2c1CN(C(=O)CC1COc3ccccc31)CC2 (racemic) [Example 298]
13 | 14.8 nM | O=C(O)Cc1ccc(OCC(F)(F)F)c(-c2ccc(F)c3c2CN(C(=O)CC2CCOc4ccccc42)CC3)c1 (racemic) [Example 299]
14 | 8.1 nM | CC(CC(=O)N1CCc2c(F)ccc(-c3cc(CC(=O)O)ccc3OCC(F)(F)F)c2C1)c1ccccn1 (racemic) [Example 302]
15 | 3.4 nM | O=C(O)Cc1ccc(OCC(F)(F)F)c(-c2ccc(F)c3c2CN(C(=O)CC2COCc4ccccc42)CC3)c1 (racemic) [Example 305]
16 | 7.4 nM | O=C(O)Cc1ccc(OCC(F)(F)F)c(-c2ccc(F)c3c2CN(C(=O)CC2OCCc4ccccc42)CC3)c1 (racemic) [Example 306]
17 | 3.4 nM | O=C(O)Cc1ccc(OCC(F)(F)F)c(-c2ccc(F)c3c2CN(C(=O)CC2COc4ccccc42)CC3)c1 (racemic) [Example 307]
18 | 13.1 nM | CCOc1ccc(CC(=O)O)cc1-c1ccc(F)c2c1CN(C(=O)CC(CC)c1ccccn1)CC2 (racemic) [Example 308]
19 | 7.8 nM | CCOc1cc(CC(=O)O)ccc1-c1ccc(F)c2c1CN(C(=O)CC(CC)c1ccccn1)CC2 (racemic) [Example 313]
20 | 114 nM | CCOc1ccc(CC(=O)O)cc1-c1ccc(F)c2c1CN(C(=O)CC(c1ccccn1)C1CC1)CC2 (racemic) [Example 318]
21 | 11.7 nM | CCOc1cc(CC(=O)O)ccc1-c1ccc(F)c2c1CN(C(=O)CC(C)c1cccc(C)n1)CC2 (racemic) [Example 320]
22 | 1.8 nM | CCOc1cc(CC(=O)O)ccc1-c1ccc(F)c2c1CN(C(=O)CC1CC(C)(C)Oc3ccccc31)CC2 (racemic) [Example 323]
23 | 0.9 nM | CCOc1cc(CC(=O)O)ccc1-c1ccc(F)c2c1CN(C(=O)CC1COc3ccccc3C1)CC2 (racemic) [Example 324]
24 | 1.8 nM | CCOc1cc(CC(=O)O)ccc1-c1ccc(F)c2c1CN(C(=O)C1CCc3cccc(OC)c3C1)CC2 (racemic) [Example 325]

Row | IC50 | SMILES
25 | 2 nM | CCOc1cc(CC(=O)O)ccc1-c1ccc(F)c2c1CN(C(=O)CC1(C)CCCc3ccccc31)CC2 (racemic) [Example 326]
26 | 0.2 nM | CCOc1cc(CC(=O)O)ccc1-c1ccc(F)c2c1CN(C(=O)CC1CCOc3cc(F)ccc31)CC2 (racemic) [Example 327]
27 | 22.7 nM | CCOc1ccc(CC(=O)O)cc1-c1ccc(F)c2c1CN(C(=O)C1CCc3cccc(OC)c3C1)CC2 (racemic) [Example 333]
28 | 291 nM | COc1ccc(CC(=O)O)cc1-c1ccc(F)c2c1CN(C(=O)C(C)Cc1cccnc1)CC2 (racemic) [Example 343]
29 | 3.7 nM | CC(C)Oc1cc(CC(=O)O)ccc1-c1ccc(F)c2c1CN(C(=O)CC(C)c1ccccn1)CC2 (racemic) [Example 346]
30 | 1.2 nM | CC(C)Oc1cc(CC(=O)O)ccc1-c1ccc(F)c2c1CN(C(=O)CC1CCOc3ccccc31)CC2 (racemic) [Example 353]
31 | 22.9 nM | COc1ccc(CC(=O)O)cc1-c1ccc(F)c2c1CN(C(=O)CC1OCc3ccccc31)CC2 (racemic) [Example 362]
32 | 4.2 nM | CCOc1ccc(CC(=O)O)cc1-c1ccc(F)c2c1CN(C(=O)OCC(C)CC)CC2 (racemic) [Example 380]
33 | 430 nM | COc1ccc(OC(C)C(=O)O)cc1-c1ccc(F)c2c1CN(C(=O)OCc1ccccc1)CC2 (racemic) [Example 414]
34 | 337 nM | CCC(Oc1ccc(OC)c(-c2ccc(F)c3c2CN(C(=O)OCc2ccccc2)CC3)c1)C(=O)O (racemic) [Example 415]
35 | 11.3 nM | CCOc1cc(C(C)C(=O)O)ccc1-c1ccc(F)c2c1CN(C(=O)OCc1ccccc1)CC2 (racemic) [Example 425]
36 | 25.6 nM | Cc1ccc(CC(=O)O)cc1-c1ccc(F)c2c1CN(C(=O)OCc1ccccc1)CC2 [Example 7, 8-(5-Carboxymethyl-2-methyl-phenyl)-5-fluoro-3,4-dihydro-1H-isoquinoline-2-carboxylic acid benzyl ester]
37 | 7.31 nM | O=C(O)Cc1ccc(C(F)(F)F)c(-c2ccc(F)c3c2CN(C(=O)OCc2ccccc2)CC3)c1 [Example 8, 8-(5-Carboxymethyl-2-trifluoromethyl-phenyl)-5-fluoro-3,4-dihydro-1H-isoquinoline-2-carboxylic acid benzyl ester]
38 | 12.8 nM | O=C(O)Cc1ccc(Cl)c(-c2ccc(F)c3c2CN(C(=O)OCc2ccccc2)CC3)c1 [Example 9, 8-(5-Carboxymethyl-2-chloro-phenyl)-5-fluoro-3,4-dihydro-1H-isoquinoline-2-carboxylic acid benzyl ester]
39 | 10.1 nM | O=C(O)Cc1ccc(F)c(-c2ccc(F)c3c2CN(C(=O)OCc2ccccc2)CC3)c1 [Example 10, 8-(5-Carboxymethyl-2-fluoro-phenyl)-5-fluoro-3,4-dihydro-1H-isoquinoline-2-carboxylic acid benzyl ester]
40 | 69.1 nM | O=C(O)Cc1cc(-c2ccc(F)c3c2CN(C(=O)OCc2ccccc2)CC3)ccc1Cl [Example 11, 8-(3-Carboxymethyl-4-chloro-phenyl)-5-fluoro-3,4-dihydro-1H-isoquinoline-2-carboxylic acid benzyl ester]
41 | 21.8 nM | O=C(O)Cc1cc(-c2ccc(F)c3c2CN(C(=O)OCc2ccccc2)CC3)ccc1F [Example 12, 8-(3-Carboxymethyl-4-fluoro-phenyl)-5-fluoro-3,4-dihydro-1H-isoquinoline-2-carboxylic acid benzyl ester]
42 | 72.3 nM | COc1ccc(-c2ccc(F)c3c2CN(C(=O)OCc2ccccc2)CC3)cc1CC(=O)O [Example 13, 8-(3-Carboxymethyl-4-methoxy-phenyl)-5-fluoro-3,4-dihydro-1H-isoquinoline-2-carboxylic acid benzyl ester]
43 | 14.8 nM | O=C(O)Cc1cc(F)cc(-c2ccc(F)c3c2CN(C(=O)OCc2ccccc2)CC3)c1 [Example 14, 8-(3-Carboxymethyl-5-fluoro-phenyl)-5-fluoro-3,4-dihydro-1H-isoquinoline-2-carboxylic acid benzyl ester]
44 | 18.5 nM | COc1cc(CC(=O)O)cc(-c2ccc(F)c3c2CN(C(=O)OCc2ccccc2)CC3)c1 [Example 15, 8-(3-Carboxymethyl-5-methoxy-phenyl)-5-fluoro-3,4-dihydro-1H-isoquinoline-2-carboxylic acid benzyl ester]
45 | 25.2 nM | O=C(O)Cc1cccc(-c2ccc(F)c3c2CN(C(=O)OCc2ccccc2)CC3)c1F [Example 16, 8-(3-Carboxymethyl-2-fluoro-phenyl)-5-fluoro-3,4-dihydro-1H-isoquinoline-2-carboxylic acid benzyl ester]
46 | 141 nM | COc1ccc(CC(=O)O)cc1-c1ccc(F)c2c1CCN(C(=O)OCc1ccccc1)CC2 [Example 17, 6-(5-Carboxymethyl-2-methoxy-phenyl)-9-fluoro-1,2,4,5-tetrahydro-benzo[d]azepine-3-carboxylic acid benzyl ester]
47 | 165 nM | COc1ccc(CC(=O)O)cc1-c1ccc(F)c2c1CN(C(=O)OCc1ccccc1)C2 [Example 18, 4-(5-Carboxymethyl-2-methoxy-phenyl)-7-fluoro-1,3-dihydro-isoindole-2-carboxylic acid benzyl ester]
